# Columns and labels:
# Type in all cases: cell-based
# [1] = system: embryonic stem cells (hESC2); test: Screening as DNA vectors in embryonic stem cells, flow cytometry; details: 75 ng plasmid DNA, 48 hours after transfection, flow cytometer
# Source text: (§1) Cell line: embryonic stem cells (hESC2, cultured according to reported methods: Stem Cells, 2005, 23, 544-549)
# (§2) Medium: mTeSR1 (STEMCELL)
# (§3) Mode of screening: cell transfection on 96-well plates
# (§4) Detection (readout): percentage of the number of GFP fluorescent cells relative to the total number of cells. Lipofectamine Stem was used as the positive control.
# Method: an 8-channel pipette was used for sample addition. The contents shown were for a single well of a 96-well flat plate.
# 1. Stem cells were cultured to 3-5×10^4 cells per well in a 96-well plate treated with matrigel.
# 2. The compound (0.01 mmol) prepared in Example 1 was dissolved in 1 mL of anhydrous ethanol. After ultrasonically dissolved, 10 μL of the resultant amino lipid solution in ethanol was taken and mixed with 5 μL of DOPE solution in ethanol ([…]). The obtained mixture was then added with 35 μL of 0.2 M sodium acetate buffer (pH 5.6), and vortexed at a constant rotating speed for 30 s. Then, 4 μL was taken from the obtained product and added to 46 μL of 0.02 M sodium acetate buffer (pH 5.6), and vortexed at a constant rotating speed for 30 s to form a liposome solution. 5 μL of this liposome solution was mixed with 75 ng of plasmid DNA (pSin-EGFP-IRES-Puro) dissolved in 5 μL of 0.02 M sodium acetate buffer, and allowed to stay at room temperature for 30 min to form a lipid/DNA transfection complex.
# 3. 10 μL of the lipid/DNA transfection complex was incubated at room temperature for 30 min, followed by addition of 90 μL mTeSR1 medium was added and mixing with a pipette. 100 μL of the mixture was added to separate wells of a 96-well culture plate and placed in an incubator containing 5% CO2 at 37° C.
# 4. 48 hours after transfection, the cells were digested with 0.05% Trypsin-EDTA. The cells were resuspended in a PBS buffer and filtered. The cell suspension was placed in a flow cytometer and the number of GFP-expressing cells in no less than 2000 cells was measured so as to obtain the absolute efficiency of cell transfection. The relative efficiency of cell transfection was obtained by comparing the cell transfection efficiency with the positive control Lipofectamine Stem.
# MCF7 cells [2] = test: Transfection of MCF7 cell line, mRNA vectors; details: 50 ng EGFP mRNA per well
# How it was run: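 Efficiency was scored as the fraction of GFP-fluorescent cells over all Hoechst-counted cells after delivery of 50 ng EGFP mRNA per well. Cells were MCF7 grown in serum-supplemented DMEM, and Lipofectamine2000 served as reference.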
# Hela cells [3] = test: Transfection of Hela cell line, DNA vectors; details: 75 ng plasmid DNA, GFP cells / total cells
# How it was run: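 Amino lipid/DOPE liposomes in sodium acetate pH 5.6 were complexed with 75 ng psin-EGFP-IRES-Puro plasmid for 30 min at room temperature, then mixed with 3-5×10^4 Hela cells in DMEM/10% FBS at 37° C. Hoechst stain after 20-24 h, imaging after a further 20-24 h. Efficiency = GFP-positive cells / total nuclei.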
# [4] = system: embryonic stem cells (hESC2); test: Screening as mRNA vectors in embryonic stem cells; details: 50 ng EGFP mRNA per well
# Procedure: as §1, §2
# Mode of screening: cell transfection on 96-well plate
# as §4
# Method: the experimental method was basically the same with Example 10, and the mass of EGFP mRNA for transfection was 50 ng per well.
# Hela cells [5] = test: Transfection of Hela cell line, mRNA vectors; details: 50 ng EGFP mRNA per well
# How it was run: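 Transfection efficiency was scored as GFP-fluorescent cells over Hoechst-stained total nuclei, with Lipofectamine2000 as reference reagent. Each well of HeLa cells, grown in DMEM plus 10% FBS, received 50 ng EGFP mRNA.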
# cardiomyocytes [6] = test: Screening as mRNA vectors in cardiomyocytes; details: 50 ng EGFP mRNA per well
# Procedure: Cell line: cardiomyocytes (obtained from induced differentiation of hESC according to reported methods: J Mol. Cell. Cardiol. 2011, 51, 288-298)
# (§5) Medium: DMEM supplemented with 10% fetal bovine serum (Invitrogen)
# as §3
# (§6) Detection (readout): percentage of the number of GFP fluorescent cells relative to the total number of cells (the total number of cells was determined using nucleus dye Hoechst). Lipofectamine Stem (Invitrogen) was used as the positive control, according to the manufacturer's instructions.
# Method: the experimental method was basically the same with Example 4, and the mass of EGFP mRNA for transfection was 50 ng per well.
# MCF7 cells [7] = test: Transfection of MCF7 cell line, DNA vectors; set-up: concentration or dose not given beside the values; details: plasmid DNA, GFP cells / total cells
# How it was run: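 Read-out: GFP-positive cells as % of all Hoechst-stained nuclei after 96-well transfection of MCF7 cells grown in serum-supplemented DMEM. Positive control was Lipofectamine2000, used per manufacturer's protocol.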
# cardiomyocytes [8] = test: Screening as DNA vectors in cardiomyocytes; set-up: concentration or dose not given beside the values; details: method as Example 4
# Procedure: Cell line: cardiomyocytes (obtained from induced differentiation of hESC according to reported methods: J. Mol. Cell. Cardiol. 2011, 51, 288-298)
# as §5, §3, §6
# Method: the experimental method was basically the same with Example 4.
SMILES,Absolute DNA transfection efficiency in embryonic stem cells [1] [%],Absolute mRNA transfection efficiency in MCF7 cells (MCF7 cells [2]) [%],Absolute DNA transfection efficiency in Hela cells (Hela cells [3]) [%],Absolute mRNA transfection efficiency in embryonic stem cells [4] [%],Absolute mRNA transfection efficiency in Hela cells (Hela cells [5]) [%],Absolute mRNA transfection efficiency in cardiomyocytes (cardiomyocytes [6]) [%],Absolute DNA transfection efficiency in MCF7 cells (MCF7 cells [7]) [%],Absolute DNA transfection efficiency in cardiomyocytes (cardiomyocytes [8]) [%]
CCCCCCCCCCCSc1nc(NCCN2CCN(C)CC2)nc(SCCCCCCCC)n1 [Compound S8S11D5],2.4,30.6,5.9,21.1,5.9,2.7,48.3,0.5
CCCCCCCCCCCSc1nc(NCCCN(C)C)nc(SCCCCCCCC)n1 [Compound S8S11D6],1.6,46.3,3.9,10.3,3.9,18.4,56.8,1.0
CCCCCCCCCCCSc1nc(NCCCN2CCOCC2)nc(SCCCCCCCC)n1 [Compound S8S11D8],1.0,7.0,7.6,1.6,7.6,0.7,12.3,2.2
CCCCCCCCCCCSc1nc(NCCCN2CCN(C)CC2)nc(SCCCCCCCC)n1 [Compound S8S11D9],1.0,34.9,6.8,18.1,6.8,25.5,59.8,0.8
CCCCCCCCCCCSc1nc(NCC2CCN(C)CC2)nc(SCCCCCCCC)n1 [Compound S8S11D10],0.7,40.4,21.8,37.4,21.8,20.8,37.2,1.4
CCCCCCCCCCCCSc1nc(NCCN2CCCC2)nc(SCCCCCCCC)n1 [Compound S8S12D3],1.5,6.7,5.5,17.9,5.5,36.7,1.9,0.3
CCCCCCCCCCCCSc1nc(NCCN2CCN(C)CC2)nc(SCCCCCCCC)n1 [Compound S8S12D5],1.7,32.6,12.4,24.9,12.4,2.5,26.3,2.4
CCCCCCCCCCCCSc1nc(NCCCN(C)C)nc(SCCCCCCCC)n1 [Compound S8S12D6],3.3,50.0,6.3,7.1,6.3,44.9,34.4,1.6
CCCCCCCCCCCCSc1nc(NCCCN2CCOCC2)nc(SCCCCCCCC)n1 [Compound S8S12D8],5.9,14.0,17.2,0.7,17.2,0.7,37.7,1.9
CCCCCCCCCCCCSc1nc(NCCCN2CCN(C)CC2)nc(SCCCCCCCC)n1 [Compound S8S12D9],2.9,5.3,1.7,16.3,1.7,14.0,13.1,1.0
CCCCCCCCCCCCSc1nc(NCC2CCN(C)CC2)nc(SCCCCCCCC)n1 [Compound S8S12D10],2.6,50.2,11.7,24.6,11.7,25.6,37.7,1.0
